No end group written: not given here.
Assays:
[1] = tested on: P. aeruginosa PAO1 (wild type); format: cell-based, Pseudomonas aeruginosa; settings: for MIC: PAO1; for MBC: PAO1, 24 h
Excerpt: (§1) The strains were used in the experiments, including Gram-positive bacteria Staphylococcus aureus (ATCC 25923), Bacillus subtilis (ATCC 6633), Streptococcus mutans (ATCC 25175), Methicillin-resistant Staphylococcus aureus (ATCC 43300), Methicillin-resistant Staphylococcus aureus 1–3 (clinically isolated, number 1–3), Gram-negative bacteria Escherichia coli (ATCC 25922), E. coli (D 31), Pseudomonas aeruginosa (ATCC 15442), P. aeruginosa PAO1 (wild type), and the fungus Candida albicans (ATCC 10231). S. mutans was cultured in Brain Heart Infusion Broth (BHI, Beijing Land Bridge, China) under anaerobic condition; C. albicans was grown in Sabouraud Dextrose Broth (SDB, HuanKai Microbial, Guangzhou, China); and the other bacterial strains were grown in Tryptic Soy Broth (TSB, HuanKai Microbial, Guangzhou, China). All bacteria and fungi were cultivated to the logarithmic phase at 37 °C before experiments were performed.
(§2) The antimicrobial activities of the peptides were measured by the two-fold dilution method. Each strain was inoculated in the medium and cultivated to the logarithmic phase. A series of diluted peptides (concentrations of 3.1–100 μM, 50 μL) were prepared in a 96-well plate (Corning, New York, NY, USA), and the same volume of the bacterial suspension (the final concentration of 1 × 10^6 CFU/mL) was added. After incubation at 37 °C for 18–24 h, the absorbance at 600 nm was measured by using a microplate reader (Multiskan Spectrum, BioTek, Winuski, VT, USA). […] All tests were performed in triplicate independent experiments.
(§3) From the MIC measuring plates, 50 μL of bacteria suspension in the presence of peptides when the concentrations were equal and up to MICs was spread on the BHI agar medium, and incubated at 37 °C for 24 h. The peptide concentration with no bacterial growth was defined as MBC [33].

[2] = tested on: Streptococcus mutans (ATCC 25175); format: cell-based; settings: for MIC: ATCC 25175; for MBC: ATCC 25175, 24 h
Excerpt: as §1, §2, §3

[3] = tested on: Pseudomonas aeruginosa (ATCC 15442); format: cell-based; settings: for MIC: ATCC 15442; for MBC: ATCC 15442, 24 h
Excerpt: as §1, §2, §3

[4] = tested on: Staphylococcus aureus (ATCC 25923); format: cell-based; settings: for MIC: ATCC 25923; for MBC: ATCC 25923, 24 h
Excerpt: as §1, §2, §3

[5] = tested on: Escherichia coli (ATCC 25922); format: cell-based; settings: for MIC: ATCC 25922; for MBC: ATCC 25922, 24 h
Excerpt: as §1, §2, §3

[6] = tested on: Candida albicans (ATCC 10231); format: cell-based; settings: for MIC: ATCC 10231; for MBC: ATCC 10231, 24 h
Excerpt: as §1, §2, §3

[7] = tested on: MRSA-1, methicillin-resistant S. aureus (clinically isolated, No.1); format: cell-based, Staphylococcus aureus; settings: for MIC: -1, methicillin-resistant (clinically isolated, No.1); for MBC: -1, methicillin-resistant (clinically isolated, No.1, 24 h)
Excerpt: as §1, §2, §3

[8] = tested on: MRSA-3, methicillin-resistant S. aureus (clinically isolated, No.3); format: cell-based, Staphylococcus aureus; settings: for MIC: -3, methicillin-resistant (clinically isolated, No.3); for MBC: -3, methicillin-resistant (clinically isolated, No.3, 24 h)
Excerpt: as §1, §2, §3

[9] = tested on: MRSA-2, methicillin-resistant S. aureus (clinically isolated, No.2); format: cell-based, Staphylococcus aureus; settings: for MIC: -2, methicillin-resistant (clinically isolated, No.2); for MBC: -2, methicillin-resistant (clinically isolated, No.2, 24 h)
Excerpt: as §1, §2, §3

[10] = tested on: methicillin-resistant S. aureus (ATCC 43300); format: cell-based, Staphylococcus aureus; settings: for MIC: ATCC 43300; for MBC: ATCC 43300, 24 h
Excerpt: as §1, §2, §3

[11] = tested on: Bacillus subtilis (ATCC 6633); format: cell-based; settings: for MIC: ATCC 6633; for MBC: ATCC 6633, 24 h
Excerpt: as §1, §2, §3

[12] = tested on: Human red blood cells (hRBCs); format: cell-based
Description: The hemolytic toxicity of the peptides was determined as described. Human red blood cells (hRBCs) were washed with phosphate-buffered saline (PBS, pH 7.2) and centrifuged at 1000× g for 10 min at 4 °C until the supernatant was clear. 4% hRBCs and an equal volume of the peptides with different concentrations were incubated at 37 °C for 1 h. After incubation, the supernatant was collected by centrifugation, and 150 μL was transferred to a new 96-well plate (Corning, New York, NY, USA). The absorbance at 450 nm was measured. The 0.1% Triton X-100 was used as the positive control, and PBS was used as the negative control. The minimum hemolysis concentration (MHC) was defined as the lowest concentration of peptide that causes 10% hemolysis, and HL50 was the lowest concentration that causes 50% hemolysis. CSI was defined as the ratio of HL50 to MIC [31].

S. mutans biofilms = format: cell-based, Streptococcus mutans; settings: S. mutans in BHI with 1% sucrose, 24 h anaerobic, CV staining, absorbance 590 nm
Description: CV was used to detect the effects of the peptides on the formation of biofilm and the eradication of mature biofilm. 100 μL of S. mutans in the logarithmic phase was diluted in BHI (containing 1% sucrose) to the concentration of 2 × 10^6 CFU/mL. The suspensions were added to the equal volume of the peptides (the final concentrations of 0.8–12.5 μM). After incubation at 37 °C under anaerobic conditions for 24 h, the supernatant was discarded. The plate was irrigated with PBS carefully to wash away the planktonic bacteria. After fixing with anhydrous methanol for 15 min, 0.5% CV was added to each well for staining the biofilms. The excess CV was washed away by PBS (pH 7.2), and the bound CV was dissolved with anhydrous methanol. A microplate reader (Multiskan Spectrum, BioTek, Winuski, VT, USA) was used to measure the absorbance value of 590 nm. MBIC50 was defined as the lowest peptide concentration that inhibited 50% of biofilm formation.

[13] = tested on: E. coli (D31), anti-streptomycin strain; format: cell-based, Escherichia coli; settings: 37 °C; for MIC: TSB, 1 × 10^6 CFU/mL, 18–24 h, absorbance 600 nm, triplicate, first value of cell; for MBC: plated from MIC wells on agar, 24 h, no growth, second value of cell
Excerpt: as §1, §2, §3

[14] = tested on: S. mutans mature biofilms; assay: Mature biofilm eradication, crystal violet; format: cell-based, Streptococcus mutans; settings: 24 h mature S. mutans biofilms, 24 h treatment, CV staining, absorbance 590 nm
Description: To evaluate the ability of the peptides to eradicate the mature biofilms of S. mutans, the bacteria (the final concentration of 1 × 10^6 CFU/mL) were seeded in a flat bottom 96-well plate for 24 h to obtain the mature biofilms. The planktonic bacteria were washed away, and the peptides with the concentrations of 3.1–50 μM were added. After treatment for 24 h, CV was used for staining and quantification as described above. The biofilms untreated with the peptides served as the negative control. MBEC50 was defined as the lowest peptide concentration that removed 50% of the mature biofilm.

Sequence | MIC [1] [µM] | MBC [1] [µM] | MIC [2] [µM] | MBC [2] [µM] | MIC [3] [µM] | MBC [3] [µM] | MIC [4] [µM] | MBC [4] [µM] | MIC [5] [µM] | MBC [5] [µM] | MIC [6] [µM] | MBC [6] [µM] | MIC [7] [µM] | MBC [7] [µM] | MIC [8] [µM] | MBC [8] [µM] | MIC [9] [µM] | MBC [9] [µM] | MIC [10] [µM] | MBC [10] [µM] | also measured
FLQRIIGALGRLF [GHaR] | 25 | 50 | 3.1 | 6.2 | 6.2 | 6.2 | 1.6 | 1.6 | 6.2 | 6.2 | 12.5 | 50 | 3.1 | 25 | 3.1 | 6.2 | 6.2 | 12.5 | 3.1 | 3.1 | 
FLQRIIGARGRLF [GHaR9R] | > 50 | > 50 | > 50 | > 50 | > 50 | > 50 | 6.2 | 12.5 | > 50 | > 50 | > 50 | > 50 | > 50 | > 50 | > 50 | > 50 | > 50 | > 50 | > 50 | > 50 | MIC [11]: > 50 µM; MBC [11]: > 50 µM
FLQRIIGAWGRLF [GHaR9W] | 25 | 50 | 6.2 | 6.2 | > 50 | > 50 | 3.1 | 6.2 | 12.5 | 12.5 | 25 | 25 | 6.2 | 12.5 | 6.2 | 12.5 | 6.2 | 12.5 | 6.2 | 12.5 | HL50 relative to that of GHaR [12]: 1–5 times higher
FLQRIIGRLGRLF [GHaR8R] | 6.2 | 12.5 | 6.2 | 6.2 | 50 | > 50 | 1.6 to 3.1 | 3.1 | 3.1 | 3.1 | 12.5 | 12.5 | 6.2 | 6.2 | 6.2 | 12.5 | 3.1 | 12.5 | 3.1 | 3.1 | time to complete eradication: < 15 min; MBIC50 (lowest peptide concentration that inhibited 50% of biofilm formation) (S. mutans biofilms): 1.6 µM; MIC [13]: 12.5 µM; MBC [13]: 25 µM; MBEC50 (lowest peptide concentration that removed 50% of the mature biofilm) [14]: 12.5 µM; MIC [11]: 12.5 µM; MBC [11]: 12.5 µM; HL50 relative to that of GHaR [12]: 1–5 times higher
FLQRIIRALGRLF [GHaR7R] | > 50 | > 50 | 6.2 | 12.5 | > 50 | > 50 | 3.1 | 3.1 | 3.1 | 12.5 | 25 | 25 | 6.2 | 25 | 6.2 | 25 | 6.2 | 50 | 3.1 | 6.2 | MBIC50 (lowest peptide concentration that inhibited 50% of biofilm formation) (S. mutans biofilms): 6.2 µM; MIC [13]: 12.5 µM; MBC [13]: 50 µM; MBEC50 (lowest peptide concentration that removed 50% of the mature biofilm) [14]: 25 µM; MIC [11]: > 50 µM; MBC [11]: > 50 µM
FLQRIRGALGRLF [GHaR6R] | 3.1 | 25 | 12.5 | 12.5 | > 50 | > 50 | 3.1 | 12.5 | 12.5 | 12.5 | 50 | 50 | 12.5 | 25 | 6.2 | 25 | 12.5 | 25 | 6.2 | 12.5 | time to complete eradication: < 15 min; MBIC50 (lowest peptide concentration that inhibited 50% of biofilm formation) (S. mutans biofilms): 6.2 µM; MIC [13]: 25 µM; MBC [13]: 50 µM; MBEC50 (lowest peptide concentration that removed 50% of the mature biofilm) [14]: 25 µM; MIC [11]: 25 µM; MBC [11]: 50 µM; HL50 relative to that of GHaR [12]: 1–5 times higher

— paper PMC7730238, “Temporin-Like Peptides Show Antimicrobial and Anti-Biofilm Activities against Streptococcus mutans with Reduced Hemolysis” (Molecules, 2020)
